Experimental data reported in publication PMC9948168, “Vanillin-Based Indolin-2-one Derivative Bearing a Pyridyl Moiety as a Promising Anti-Breast Cancer Agent via Anti-Estrogenic Activity” (ACS Omega, 2023).

Assays:
Experiment in all cases: NCI-60 one-dose screening
Format in all cases: cell-based
HT29 = conditions: Homo sapiens, HT-29, HT29, Colon Cancer, read-out: GI (%)
786-0 = conditions: Homo sapiens, 786-0, Renal Cancer, read-out: GI (%)
COLO 205 = conditions: Homo sapiens, COLO 205, Colon Cancer, read-out: GI (%)
HS 578T = conditions: Homo sapiens, Breast Cancer, read-out: GI (%)
NCI/ADR-RES = conditions: Homo sapiens, Ovarian Cancer, read-out: GI (%)
SF-539 = conditions: Homo sapiens, SF-539, CNS Cancer, read-out: GI (%)
U251 = conditions: Homo sapiens, U-251, U251, CNS Cancer, read-out: GI (%)
MCF7 = conditions: Homo sapiens, MCF7, 10 μM; MCF7, Breast Cancer; read-out: GI (%)
A498 = conditions: Homo sapiens, A498, Renal Cancer, read-out: GI (%)
SNB-19 = conditions: Homo sapiens, SNB-19, CNS Cancer, read-out: GI (%)
MDA-MB-468 = conditions: Homo sapiens, MDA-MB-468, Breast Cancer, read-out: GI (%)
K-562 = conditions: Homo sapiens, K562, K-562, Leukemias, read-out: GI (%)
A549/ATCC = conditions: Homo sapiens, Non-Small Cell Lung Cancer, read-out: GI (%)
OVCAR-5 = conditions: Homo sapiens, OVCAR-5, Ovarian Cancer, read-out: GI (%)
NCI-H522 = conditions: Homo sapiens, NCI-H522, Non-Small Cell Lung Cancer, read-out: GI (%)
SNB-75 = conditions: Homo sapiens, SNB-75, CNS Cancer, read-out: GI (%)
CCRF-CEM = conditions: Homo sapiens, Leukemias, read-out: GI (%)
SF-295 = conditions: Homo sapiens, SF-295, CNS Cancer, read-out: GI (%)
DU-145 = conditions: Homo sapiens, DU-145, Prostate Cancer, read-out: GI (%)
EKVX = conditions: Homo sapiens, Non-Small Cell Lung Cancer, read-out: GI (%)
BT-549 = conditions: Homo sapiens, BT-549, Breast Cancer, read-out: GI (%)
HCT-116 = conditions: Homo sapiens, HCT-116, Colon Cancer, read-out: GI (%)
SK-OV-3 = conditions: Homo sapiens, SK-OV-3, Ovarian Cancer, read-out: GI (%)
SK-MEL-28 = conditions: Homo sapiens, SK-MEL-28, Melanoma, read-out: GI (%)
HOP-62 = conditions: Homo sapiens, HOP-62, Non-Small Cell Lung Cancer, read-out: GI (%)
ACHN = conditions: Homo sapiens, Renal Cancer, read-out: GI (%)
MDA-MB-231/ATCC = conditions: Homo sapiens, Breast Cancer, read-out: GI (%)
IGROV1 = conditions: Homo sapiens, IGROV-1, IGROV1, Ovarian Cancer, read-out: GI (%)
HL-60(TB) = conditions: Homo sapiens, Leukemias, read-out: GI (%)
UACC-62 = conditions: Homo sapiens, UACC-62, Melanoma, read-out: GI (%)
NCI-H226 = conditions: Homo sapiens, NCI-H226, Non-Small Cell Lung Cancer, read-out: GI (%)
NCI-H460 = conditions: Homo sapiens, NCI-H460, Non-Small Cell Lung Cancer, read-out: GI (%)
UACC-257 = conditions: Homo sapiens, UACC-257, Melanoma, read-out: GI (%)
UO-31 = conditions: Homo sapiens, UO-31, Renal Cancer, read-out: GI (%)
SW-620 = conditions: Homo sapiens, SW-620, Colon Cancer, read-out: GI (%)
LOX IMVI = conditions: Homo sapiens, Melanoma, read-out: GI (%)

| Structure (SMILES) | inhibition at 10 µM (HT29) | inhibition at 10 µM (786-0) | inhibition at 10 µM (COLO 205) | inhibition at 10 µM (HS 578T) | inhibition at 10 µM (NCI/ADR-RES) | inhibition at 10 µM (SF-539) | inhibition at 10 µM (U251) | inhibition at 10 µM (MCF7) | inhibition at 10 µM (A498) | inhibition at 10 µM (SNB-19) | inhibition at 10 µM (MDA-MB-468) | inhibition at 10 µM (K-562) | inhibition at 10 µM (A549/ATCC) | inhibition at 10 µM (OVCAR-5) | inhibition at 10 µM (NCI-H522) | inhibition at 10 µM (SNB-75) | inhibition at 10 µM (CCRF-CEM) | inhibition at 10 µM (SF-295) | inhibition at 10 µM (DU-145) | inhibition at 10 µM (EKVX) | also measured |
| --- | --- | --- | --- | --- | --- | --- | --- | --- | --- | --- | --- | --- | --- | --- | --- | --- | --- | --- | --- | --- | --- |
| COc1cc(C=C2C(=O)Nc3ccccc32)ccc1O (mixture of isomers) [5a] | -1.86% | -0.72% | -13.8% | 47.9% | 8.73% | 22.6% | 22.2% | 44.8% | 2.96% | 6.94% | 32.7% | 9.79% | 3.48% | -2.51% | 27.4% | 50.6% | 10.2% | 7.71% | 11.2% | 82.6% | inhibition at 10 µM (BT-549): 25.6%; inhibition at 10 µM (HCT-116): 24.2%; inhibition at 10 µM (SK-OV-3): 5.29%; inhibition at 10 µM (SK-MEL-28): 6.91%; inhibition at 10 µM (HOP-62): 20.7%; inhibition at 10 µM (ACHN): 22.8%; inhibition at 10 µM (MDA-MB-231/ATCC): 33.7%; inhibition at 10 µM (IGROV1): 25.6%; inhibition at 10 µM (HL-60(TB)): 15.1%; inhibition at 10 µM (UACC-62): 34.6%; inhibition at 10 µM (NCI-H226): -2.09%; inhibition at 10 µM (NCI-H460): 8.35%; inhibition at 10 µM (UACC-257): 11.3%; inhibition at 10 µM (UO-31): 47.7%; inhibition at 10 µM (SW-620): -0.49%; inhibition at 10 µM (LOX IMVI): 28.6% |
| COc1cc(C=C2C(=O)Nc3ccc(Cl)cc32)ccc1OCc1ccc(F)cc1 (mixture of isomers) [6h] | 5.93% | -0.02% | 6.56% | 5.91% | 11.7% | 7.83% | 49.3% | 51% | 6.57% | 8.68% | 12.8% | 11.4% | 15.1% | 3.31% | 12.1% | 22.3% | 30.5% | 2.31% | 10.5% | 11.5% | inhibition at 10 µM (BT-549): -1.21%; inhibition at 10 µM (HCT-116): 52.1%; inhibition at 10 µM (SK-OV-3): -9.69%; inhibition at 10 µM (SK-MEL-28): -3.14%; inhibition at 10 µM (HOP-62): 7.95%; inhibition at 10 µM (ACHN): 47.3%; inhibition at 10 µM (MDA-MB-231/ATCC): 13.1%; inhibition at 10 µM (IGROV1): 22.7%; inhibition at 10 µM (HL-60(TB)): -2.34%; inhibition at 10 µM (UACC-62): 29.8%; inhibition at 10 µM (NCI-H226): 4.31%; inhibition at 10 µM (NCI-H460): 29.5%; inhibition at 10 µM (UACC-257): -1.98%; inhibition at 10 µM (UO-31): 25.7%; inhibition at 10 µM (SW-620): 40.3%; inhibition at 10 µM (LOX IMVI): 31.7% |
| COc1cc(C=C2C(=O)Nc3ccc(Cl)cc32)ccc1OCc1ccc(Cl)cc1 (mixture of isomers) [6g] | 6.96% | 4.52% | -7.05% | 2.99% | 16.1% | 10.7% | 52.1% | 54.4% | 13.5% | 12.8% | 17.2% | 10.4% | 7.48% | 3.04% | 6.96% | 28.1% | 18.1% | 6.36% | 6.57% | 27.5% | inhibition at 10 µM (BT-549): 4.38%; inhibition at 10 µM (HCT-116): 49%; inhibition at 10 µM (SK-OV-3): 2.96%; inhibition at 10 µM (SK-MEL-28): -3.4%; inhibition at 10 µM (HOP-62): 13.1%; inhibition at 10 µM (ACHN): 71.9%; inhibition at 10 µM (MDA-MB-231/ATCC): 21.6%; inhibition at 10 µM (IGROV1): 37.5%; inhibition at 10 µM (HL-60(TB)): -1.67%; inhibition at 10 µM (UACC-62): 27%; inhibition at 10 µM (NCI-H226): 17.1%; inhibition at 10 µM (NCI-H460): 50.5%; inhibition at 10 µM (UACC-257): -8.01%; inhibition at 10 µM (UO-31): 37.9%; inhibition at 10 µM (SW-620): 23%; inhibition at 10 µM (LOX IMVI): 46.1% |
